pIC50: −log10 of the molar value.
Tests used:
[1] = test system: MDMΦs; test: Cytotoxicity, MTS cell proliferation assay; assay type: cell-based, human
Procedure: Cytotoxicity of compounds was assessed by a cell proliferation assay for metabolic activity using a CellTiter 96 AQueous One Solution Cell Proliferation Assay (Promega) as per the manufacturer’s instructions. Briefly, 20 μl of a solution containing tetrazolium compound [3-(4,5-[…])-5-(3-carboxymethoxyphenyl)-2-(4-sulfophenyl)-2H-tetrazolium; MTS] and electron coupling reagent (phenazine ethosulfate) was added to cells covered or suspended in 100 μl of culture medium in a 96-well plate. Samples were incubated for approximately 4 hours (37°C, 5% CO2), and the absorbance at 490 nm (A490) was measured on a SpectraMax M5 microplate reader (Molecular Devices).

[2] = target: T1, Mouse ER α-glucosidase II (Mus musculus, UniProt Q8BHN3); test: In vitro enzyme inhibition, 4MUG hydrolysis; assay type: biochemical; conditions: concentration required to inhibit the enzyme to 50% activity
T1 sequence (Q8BHN3 33-944): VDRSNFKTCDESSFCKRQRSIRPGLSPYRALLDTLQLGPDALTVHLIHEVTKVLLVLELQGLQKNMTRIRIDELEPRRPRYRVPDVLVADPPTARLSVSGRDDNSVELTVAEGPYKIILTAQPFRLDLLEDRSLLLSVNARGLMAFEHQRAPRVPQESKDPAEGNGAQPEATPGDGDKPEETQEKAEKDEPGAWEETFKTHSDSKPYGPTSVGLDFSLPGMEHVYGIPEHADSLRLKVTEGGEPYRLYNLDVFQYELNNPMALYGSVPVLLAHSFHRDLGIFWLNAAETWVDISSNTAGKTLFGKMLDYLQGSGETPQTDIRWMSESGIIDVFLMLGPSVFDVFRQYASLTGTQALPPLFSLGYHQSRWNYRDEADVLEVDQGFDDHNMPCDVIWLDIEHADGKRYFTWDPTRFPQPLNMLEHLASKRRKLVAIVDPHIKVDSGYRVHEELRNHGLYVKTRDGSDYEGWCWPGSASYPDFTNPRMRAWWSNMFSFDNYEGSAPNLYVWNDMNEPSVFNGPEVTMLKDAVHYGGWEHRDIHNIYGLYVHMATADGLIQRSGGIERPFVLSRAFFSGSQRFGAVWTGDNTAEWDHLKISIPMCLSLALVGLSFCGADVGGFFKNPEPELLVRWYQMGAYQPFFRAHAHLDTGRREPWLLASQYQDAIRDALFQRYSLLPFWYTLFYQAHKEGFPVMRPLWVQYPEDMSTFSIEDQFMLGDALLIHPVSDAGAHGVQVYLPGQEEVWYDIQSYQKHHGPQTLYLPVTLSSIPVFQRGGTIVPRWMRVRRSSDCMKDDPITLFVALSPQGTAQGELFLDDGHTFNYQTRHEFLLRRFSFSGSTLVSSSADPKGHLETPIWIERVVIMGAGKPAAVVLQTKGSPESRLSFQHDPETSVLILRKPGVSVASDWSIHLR
T1 sequence (O08795 15-521 partner): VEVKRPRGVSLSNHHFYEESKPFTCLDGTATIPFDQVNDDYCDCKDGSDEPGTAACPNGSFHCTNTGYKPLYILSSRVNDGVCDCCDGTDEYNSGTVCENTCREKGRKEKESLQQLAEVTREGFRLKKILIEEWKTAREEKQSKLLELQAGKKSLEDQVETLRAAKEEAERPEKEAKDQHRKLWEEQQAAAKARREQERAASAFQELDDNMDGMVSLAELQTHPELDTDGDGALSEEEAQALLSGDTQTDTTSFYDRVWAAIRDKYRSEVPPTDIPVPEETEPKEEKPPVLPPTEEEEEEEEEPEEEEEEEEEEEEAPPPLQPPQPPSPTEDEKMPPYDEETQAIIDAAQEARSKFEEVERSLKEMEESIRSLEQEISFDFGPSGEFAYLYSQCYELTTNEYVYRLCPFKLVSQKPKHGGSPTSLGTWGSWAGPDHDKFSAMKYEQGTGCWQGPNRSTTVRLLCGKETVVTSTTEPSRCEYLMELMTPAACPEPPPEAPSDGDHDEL
Procedure: Recombinant Mus musculus ER alpha-glucosidase II inhibition was measured by incubating 20 nM enzyme with various concentrations of inhibitors in 100 mM potassium phosphate pH 7.2 at 37 °C for 5 minutes. Activity was measured by addition of 0.25 mM 4-methylumbelliferyl α-D-glucopyranoside (4MUG) (Sigma Aldrich) in black, non-binding surface-treated microplates (Corning). Fluorescence upon hydrolysis of the 4MUG was measured at λex of 355 nm and λem of 460 nm in a M5 multi-mode plate reader (Molecular Devices) at 37 °C, measuring fluorescence every minute for a total of 30 minutes. The initial velocity was fit in the linear range of measurements, and activity was normalized to the uninhibited control in order to plot activity against the inhibitor concentration. A sigmoidal, four-parameter function with a variable slope was used to determine the EC50 values in Prism (GraphPad).

[3] = target: Rat intestinal maltase; test: In vitro enzyme inhibition, glucose release from disaccharide; assay type: biochemical; conditions: concentration required to inhibit the enzyme to 50% activity
Procedure: Inhibition of glucosidases and glycosidases was detected as previously described. Briefly, assays were performed at the optimum pH of each enzyme, and appropriate disaccharide was provided as substrate for glucosidase release assays. Release of D-glucose was measured using a Glucose B-test (Wako Diagnostics). Appropriate p-nitrophenyl glycoside was added as substrate for additional glycosidase assays, and assays were stopped by adding 400 mM Na2CO3. Release of p-nitrophenol was measured spectrophotometrically at 400 nm.

[4] = target: Human lysosome α-glucosidase (Homo sapiens, UniProt P10253); test: In vitro enzyme inhibition; assay type: biochemical; conditions: concentration required to inhibit the enzyme to 50% activity; read-out: IC50

| SMILES | MNTD (maximum non-toxic dose tested) [1] | pIC50 [2] | pIC50 [3] | pIC50 [4] | concentration up to which cytotoxicity was not detected [1] |
| --- | --- | --- | --- | --- | --- |
| CCCCCCCCCN1C[C@H](O)[C@@H](O)[C@@H](O)[C@H]1CO [NN-DGJ] | 31.6 µM | < 3.00 | < 3.00 | < 3.00 |  |
| CCCC(=O)O[C@H]1CN2CC[C@H](O)[C@@H]2[C@@H](O)[C@@H]1O [Celgosivir, 6-O-butanoyl-castanospermine] | 100 µM | 3.80 | 4.77 | 4.03 |  |
| CCCCN1C[C@H](O)[C@@H](O)[C@H](O)[C@H]1CO [NB-DNJ, N-butyl-DNJ] | 100 µM | 5.28 | 5.96 | 6.57 |  |
| CCCCN1C[C@H](O)[C@@H](O)[C@@H](O)[C@H]1CO [NB-DGJ] | 100 µM | < 3.00 | < 3.00 | < 3.00 | > 100 µM |

Source: PMC4790851, “Iminosugars Inhibit Dengue Virus Production via Inhibition of ER Alpha-Glucosidases—Not Glycolipid Processing Enzymes” (PLoS Neglected Tropical Diseases, 2016)
